In ChEMBL document CHEMBL1150794, “Vibrio splendidus as the source of plasmid-mediated QnrS-like quinolone resistance determinants” (2007) one finds MIC data, which are given here for six compounds.

In brackets after ≈: the same amount, converted by molar mass.

Holding throughout (format): functional
In test [1] the test system is Vibrio splendidus. Description: Antimicrobial activity against Vibrio splendidus 12B01 expressing plasmid-mediated QnrS-like quinolone resistance determinants.
Test [2] has as its system Vibrio splendidus. The test is described as follows: Antimicrobial activity against Vibrio splendidus LGP32 expressing plasmid-mediated QnrS-like quinolone resistance determinants.
The subject of test [3] is Escherichia coli. Description: Antimicrobial activity against Escherichia coli TOP10.
Test [4] deals with Escherichia coli. The test is described as follows: Antimicrobial activity against Escherichia coli TOP10 harbouring pVS2 expressing quinolone resistant Vibrio splendidus LGP32 QnrVS2 gene.
Test [5] has as its system Escherichia coli. The test is described as follows: Antimicrobial activity against Escherichia coli TOP10 harbouring pS2 plasmid expressing quinolone resistant QnrS2 gene.
Test [6] concerns Escherichia coli. The test is described as follows: Antimicrobial activity against Escherichia coli TOP10 harbouring pVS1 expressing quinolone resistant Vibrio splendidus 12B01 QnrVS1 gene.
Test [7] deals with Escherichia coli. Description: Antimicrobial activity against Escherichia coli TOP10 harbouring pS1 plasmid expressing quinolone resistant QnrS1 gene.
Test [8] has as its system Escherichia coli. The test is described as follows: Antimicrobial activity against Escherichia coli TOP10 harbouring p0 plasmid expressing pCR-BluntII-TOPO.

Take `O=C(O)c1cn(C2CC2)c2cc(N3CCNCC3)c(F)cc2c1=O` [CIPROFLOXACIN]: the MIC against Vibrio splendidus [1] is 0.25 µg/mL (≈ 0.754 µM); in the test on Vibrio splendidus [2], 0.25 µg/mL (≈ 0.754 µM); in the test on Escherichia coli [3] it was below 0.01 µg/mL.
With `COc1c(N2C[C@@H]3CCCN[C@@H]3C2)c(F)cc2c(=O)c(C(=O)O)cn(C3CC3)c12` [MOXIFLOXACIN], the MIC with Escherichia coli [4] was 0.12 µg/mL (≈ 0.299 µM); in the test on Escherichia coli [5], 0.25 µg/mL (≈ 0.623 µM); with Escherichia coli [6], 0.12 µg/mL (≈ 0.299 µM); with Vibrio splendidus [1], 0.25 µg/mL (≈ 0.623 µM); with Vibrio splendidus [2], 0.25 µg/mL (≈ 0.623 µM); against Escherichia coli [7] it was 0.25 µg/mL (≈ 0.623 µM). In addition, in the test with Escherichia coli [3], the MIC is below 0.01 µg/mL.
For `CCn1cc(C(=O)O)c(=O)c2ccc(C)nc21` [NALIDIXIC ACID], the MIC stood at 8 µg/mL (≈ 34.4 µM) against Escherichia coli [4]; 8 µg/mL (≈ 34.4 µM) with Escherichia coli [5]; 1 µg/mL (≈ 4.31 µM) with Escherichia coli [8]; 8 µg/mL (≈ 34.4 µM) against Escherichia coli [6]; 2 µg/mL (≈ 8.61 µM) against Vibrio splendidus [1]; 4 µg/mL (≈ 17.2 µM) in the test on Vibrio splendidus [2]. The MIC turned out to be 8 µg/mL (≈ 34.4 µM) with Escherichia coli [7] and 1 µg/mL (≈ 4.31 µM) in the test with Escherichia coli [3].
In the case of `CCn1cc(C(=O)O)c(=O)c2cc(F)c(N3CCNCC3)cc21` [NORFLOXACIN], the MIC was 0.5 µg/mL (≈ 1.57 µM) with Escherichia coli [4]; 1 µg/mL (≈ 3.13 µM) against Escherichia coli [5]; 0.03 µg/mL (≈ 0.0939 µM) with Escherichia coli [8]; 0.5 µg/mL (≈ 1.57 µM) in the test on Escherichia coli [6]; 0.25 µg/mL (≈ 0.783 µM) against Vibrio splendidus [1]; 0.5 µg/mL (≈ 1.57 µM) in the test on Vibrio splendidus [2]. The MIC in the test with Escherichia coli [7] came to 1 µg/mL (≈ 3.13 µM); against Escherichia coli [3], 0.03 µg/mL (≈ 0.0939 µM).
As to `CC1COc2c(N3CCN(C)CC3)c(F)cc3c(=O)c(C(=O)O)cn1c23` (configuration not stated) [OFLOXACIN], the MIC against Escherichia coli [4] is 0.25 µg/mL (≈ 0.692 µM); in the test with Escherichia coli [6], 0.25 µg/mL (≈ 0.692 µM); with Vibrio splendidus [1] it was 0.25 µg/mL (≈ 0.692 µM); in the test with Vibrio splendidus [2], 0.5 µg/mL (≈ 1.38 µM).
For the compound `C[C@@H]1CN(c2c(F)c(N)c3c(=O)c(C(=O)O)cn(C4CC4)c3c2F)C[C@H](C)N1` [SPARFLOXACIN], the MIC with Escherichia coli [4] turned out to be 0.12 µg/mL (≈ 0.306 µM); in the test with Escherichia coli [5], 0.25 µg/mL (≈ 0.637 µM); against Escherichia coli [6] it was 0.12 µg/mL (≈ 0.306 µM); against Vibrio splendidus [1], 0.25 µg/mL (≈ 0.637 µM); against Vibrio splendidus [2], 0.5 µg/mL (≈ 1.27 µM); in the test with Escherichia coli [7] it was 0.25 µg/mL (≈ 0.637 µM). In the test with Escherichia coli [3], this compound showed an MIC below 0.01 µg/mL.
